Literature values, collected in patent US7144595B2, “Prepared foods containing triglyceride-recrystallized non-esterified phytosterols” (Brandeis University, priority 2001, dated 2006).

Tested on: humans

Compound	lowering of serum cholesterol (12–18 g per day in divided doses, males with atherosclerosis (Faquhar 1956))	decrease of plasma cholesterol level (9–18 grams per day, coarse powdered form)
CC[C@H](CC[C@@H](C)[C@H]1CC[C@H]2[C@@H]3CC=C4C[C@@H](O)CC[C@]4(C)[C@H]3CC[C@]12C)C(C)C [beta sitosterol]	15–20%	
CC[C@H](CC[C@@H](C)[C@H]1CC[C@H]2[C@@H]3CC=C4C[C@@H](O)CC[C@]4(C)[C@H]3CC[C@]12C)C(C)C [sitosterol]		approximately 15%
